Test results: article PMC5218480 (PLoS ONE, 2017)

System: MV-4-11 cells
Assay: Gene expression microarray analysis (Affymetrix PrimeView) and GSEA
Format: cell-based, human
Design: RFU PODN (11730768_x_at) / Fold change /veh PODN (11730768_x_at) / RFU LINC00158 (11744669_a_at) / Fold change /veh LINC00158 (11744669_a_at) / RFU DUSP10 (11751237_a_at) / Fold change /veh DUSP10 (11751237_a_at) / RFU ID3 (11757404_x_at) / Fold change /veh ID3 (11757404_x_at) / RFU PLEKHG5 (11737974_s_at) / Fold change /veh PLEKHG5 (11737974_s_at) / RFU LRRC4B (11730491_at) / Fold change /veh LRRC4B (11730491_at) / RFU GIMAP4 (11747438_a_at) / Fold change /veh GIMAP4 (11747438_a_at) / RFU KRT8 (11758183_x_at) / Fold change /veh KRT8 (11758183_x_at) / RFU CNN1 (11734310_a_at) / Fold change /veh CNN1 (11734310_a_at) / RFU VPS37D (11726825_at) / Fold change /veh VPS37D (11726825_at) / RFU C10orf10 (11716522_x_at) / Fold change /veh C10orf10 (11716522_x_at) / RFU KIR2DL2 /// KIR2DL4 /// KIR2DL5A /// KIR2DL5B /// KIR2DS1 /// KIR2DS2 /// KIR2DS3 /// KIR2DS4 /// KIR3DL3 /// KIR3DL3 /// KIR3DS1 (11738374_at) / Fold change /veh KIR2DL2 /// KIR2DL4 /// KIR2DL5A /// KIR2DL5B /// KIR2DS1 /// KIR2DS2 /// KIR2DS3 /// KIR2DS4 /// KIR3DL3 /// KIR3DL3 /// KIR3DS1 (11738374_at) / RFU C1QL1 (11718748_at) / Fold change /veh C1QL1 (11718748_at) / RFU TMPRSS4 (11747572_a_at) / Fold change /veh TMPRSS4 (11747572_a_at) / RFU HAMP (11756126_x_at) / Fold change /veh HAMP (11756126_x_at) / RFU RNFT2 (11725882_a_at) / Fold change /veh RNFT2 (11725882_a_at) / RFU NR4A2 (11747474_a_at) / Fold change /veh NR4A2 (11747474_a_at) / RFU ABCC12 (11746883_a_at) / Fold change /veh ABCC12 (11746883_a_at) / RFU TMEM136 (11760407_x_at) / Fold change /veh TMEM136 (11760407_x_at) / RFU CLDN22 /// WWC2 (11732394_at) / Fold change /veh CLDN22 /// WWC2 (11732394_at) / RFU HLA-DPB1 (11760878_x_at) / Fold change /veh HLA-DPB1 (11760878_x_at) / RFU SPINT1 (11716480_a_at) / Fold change /veh SPINT1 (11716480_a_at) / RFU GAP43 (11754022_s_at) / Fold change /veh GAP43 (11754022_s_at) / RFU A4GNT (11735810_at) / Fold change /veh A4GNT (11735810_at) / RFU PRB3 (11715151_x_at) / Fold change /veh PRB3 (11715151_x_at) / RFU TUBB4B (11761932_at) / Fold change /veh TUBB4B (11761932_at) / RFU CAPN14 (11732068_a_at) / Fold change /veh CAPN14 (11732068_a_at) / RFU TMCC2 (11721928_a_at) / Fold change /veh TMCC2 (11721928_a_at) / RFU IRGQ (11745062_a_at) / Fold change /veh IRGQ (11745062_a_at) / RFU FAM174B (11720279_a_at) / Fold change /veh FAM174B (11720279_a_at) / RFU TMPRSS4 (11748680_a_at) / Fold change /veh TMPRSS4 (11748680_a_at) / RFU FAM212B (11763350_a_at) / Fold change /veh FAM212B (11763350_a_at) / RFU PLEKHG5 (11743358_a_at) / Fold change /veh PLEKHG5 (11743358_a_at) / RFU ZSCAN30 (11745921_a_at) / Fold change /veh ZSCAN30 (11745921_a_at) / RFU CMKLR1 (11741424_a_at) / Fold change /veh CMKLR1 (11741424_a_at) / RFU LOC101060620 /// MAPK8IP1 (11723275_at) / Fold change /veh LOC101060620 /// MAPK8IP1 (11723275_at) / RFU SPTSSB (11747773_x_at) / Fold change /veh SPTSSB (11747773_x_at) / RFU PRSS12 (11739890_at) / Fold change /veh PRSS12 (11739890_at) / RFU BIN1 (11741810_x_at) / Fold change /veh BIN1 (11741810_x_at) / RFU WNT11 (11732464_a_at) / Fold change /veh WNT11 (11732464_a_at) / RFU C10orf10 (11716521_a_at) / Fold change /veh C10orf10 (11716521_a_at) / RFU C5orf56 (11738089_at) / Fold change /veh C5orf56 (11738089_at) / RFU CYB561 (11721691_x_at) / Fold change /veh CYB561 (11721691_x_at) / RFU ANKRD19P (11752326_a_at) / Fold change /veh ANKRD19P (11752326_a_at) / RFU OR2T12 /// OR2T33 /// OR2T8 (11738714_s_at) / Fold change /veh OR2T12 /// OR2T33 /// OR2T8 (11738714_s_at) / RFU VCAN (11748164_a_at) / Fold change /veh VCAN (11748164_a_at) / RFU JSRP1 (11732532_at) / Fold change /veh JSRP1 (11732532_at) / RFU KRTAP10-11 (11738290_x_at) / Fold change /veh KRTAP10-11 (11738290_x_at) / RFU MYO3A (11730013_a_at) / Fold change /veh MYO3A (11730013_a_at) / RFU EBF3 (11725865_a_at) / Fold change /veh EBF3 (11725865_a_at) / RFU CAMK2N1 (11719241_x_at) / Fold change /veh CAMK2N1 (11719241_x_at) / RFU C5orf56 (11738088_a_at) / Fold change /veh C5orf56 (11738088_a_at) / RFU OLFML3 (11715873_a_at) / Fold change /veh OLFML3 (11715873_a_at) / RFU LOC100653217 /// NTM (11731650_a_at) / Fold change /veh LOC100653217 /// NTM (11731650_a_at) / RFU MAPK11 (11762145_a_at) / Fold change /veh MAPK11 (11762145_a_at) / RFU FIZ1 (11724087_x_at) / Fold change /veh FIZ1 (11724087_x_at) / RFU OASL (11726364_x_at) / Fold change /veh OASL (11726364_x_at) / RFU SOX15 (11748057_x_at) / Fold change /veh SOX15 (11748057_x_at) / RFU CD79A (11719716_a_at) / Fold change /veh CD79A (11719716_a_at) / RFU HIST1H1D (11736915_at) / Fold change /veh HIST1H1D (11736915_at) / RFU CASKIN2 (11723855_a_at) / Fold change /veh CASKIN2 (11723855_a_at) / RFU LOC730098 (11760151_x_at) / Fold change /veh LOC730098 (11760151_x_at) / RFU OR4N2 (11742367_at) / Fold change /veh OR4N2 (11742367_at) / RFU PRRT2 (11749266_a_at) / Fold change /veh PRRT2 (11749266_a_at) / RFU SNX32 (11753110_a_at) / Fold change /veh SNX32 (11753110_a_at) / RFU CDHR5 (11726645_a_at) / Fold change /veh CDHR5 (11726645_a_at) / RFU RCAN1 (11760418_a_at) / Fold change /veh RCAN1 (11760418_a_at) / RFU FAM167A (11723789_a_at) / Fold change /veh FAM167A (11723789_a_at) / RFU FAM26E (11764081_at) / Fold change /veh FAM26E (11764081_at) / RFU ISYNA1 (11749810_s_at) / Fold change /veh ISYNA1 (11749810_s_at) / RFU ACY1 (11761880_at) / Fold change /veh ACY1 (11761880_at) / RFU 11764098_at / Fold change /veh 11764098_at / RFU SAMD14 (11745864_x_at) / Fold change /veh SAMD14 (11745864_x_at) / RFU NPB (11741838_a_at) / Fold change /veh NPB (11741838_a_at) / RFU TMPRSS6 (11731388_a_at) / Fold change /veh TMPRSS6 (11731388_a_at) / RFU KRTAP10-2 (11738614_at) / Fold change /veh KRTAP10-2 (11738614_at) / RFU ARHGAP8 /// PRR5-ARHGAP8 (11727945_x_at) / Fold change /veh ARHGAP8 /// PRR5-ARHGAP8 (11727945_x_at) / RFU KRTAP5-7 /// NADSYN1 (11734609_at) / Fold change /veh KRTAP5-7 /// NADSYN1 (11734609_at) / RFU RASL12 (11751679_a_at) / Fold change /veh RASL12 (11751679_a_at) / RFU CDKN2B (11736163_a_at) / Fold change /veh CDKN2B (11736163_a_at) / RFU PRF1 (11729649_at) / Fold change /veh PRF1 (11729649_at) / RFU, ZNF638 /// ZNF638-IT1 / Fold change vs veh, ZNF638 /// ZNF638-IT1 / RFU, PANK3 / Fold change vs veh, PANK3 / RFU, SH3YL1 / Fold change vs veh, SH3YL1 / RFU, ZEB2 / Fold change vs veh, ZEB2 / RFU, NRIP1 / Fold change vs veh, NRIP1 / RFU, PTTG1IP / Fold change vs veh, PTTG1IP / RFU, CAPN2 / Fold change vs veh, CAPN2 / RFU, MED14 / Fold change vs veh, MED14 / RFU, SNORA58 / Fold change vs veh, SNORA58 / RFU, C1orf63 / Fold change vs veh, C1orf63 / RFU, LRRFIP1 / Fold change vs veh, LRRFIP1 / RFU, NDUFAF7 / Fold change vs veh, NDUFAF7 / RFU, SLC12A2 / Fold change vs veh, SLC12A2 / RFU, IBTK / Fold change vs veh, IBTK / RFU, ESF1 / Fold change vs veh, ESF1 / Fold change vs veh, TMEM50B / RFU, TAOK1 / Fold change vs veh, TAOK1 / RFU, ACBD3 / Fold change vs veh, ACBD3 / RFU, TMA16 / Fold change vs veh, TMA16 / RFU, RWDD3 / Fold change vs veh, RWDD3 / RFU, BCAT1 / Fold change vs veh, BCAT1 / RFU, EDEM3 / Fold change vs veh, EDEM3 / RFU, TMEM33 / Fold change vs veh, TMEM33 / RFU, WDR75 / Fold change vs veh, WDR75 / RFU, AHCTF1 / Fold change vs veh, AHCTF1 / RFU, TFRC / Fold change vs veh, TFRC / RFU, ZDHHC17 / Fold change vs veh, ZDHHC17 / RFU, NOM1 / Fold change vs veh, NOM1 / RFU, ARL8B / Fold change vs veh, ARL8B / RFU, ZBTB11 / Fold change vs veh, ZBTB11 / RFU, TAMM41 / Fold change vs veh, TAMM41 / RFU, KIAA1704 /// LOC100996395 / Fold change vs veh, KIAA1704 /// LOC100996395 / RFU, ING1 / Fold change vs veh, ING1 / RFU, TRMT61B / Fold change vs veh, TRMT61B / RFU, FUBP3 / Fold change vs veh, FUBP3 / RFU, TP53 / Fold change vs veh, TP53 / RFU, TNKS2 / Fold change vs veh, TNKS2 / RFU, ZFP14 / Fold change vs veh, ZFP14 / RFU, ACTR2 / Fold change vs veh, ACTR2 / RFU, PPP3R1 / Fold change vs veh, PPP3R1 / RFU, PIK3R1 / Fold change vs veh, PIK3R1 / RFU, HNRNPA1 / Fold change vs veh, HNRNPA1 / RFU, RNF170 / Fold change vs veh, RNF170 / RFU, ZNF28 / Fold change vs veh, ZNF28 / RFU, RNGTT / Fold change vs veh, RNGTT / RFU, OGT / Fold change vs veh, OGT / RFU, BRD1 / Fold change vs veh, BRD1 / RFU, MARS / Fold change vs veh, MARS / RFU, ZNF655 / Fold change vs veh, ZNF655 / RFU, FAHD1 / Fold change vs veh, FAHD1 / RFU, BDP1 / Fold change vs veh, BDP1 / RFU, LRRCC1 / Fold change vs veh, LRRCC1 / RFU, ARID1A / Fold change vs veh, ARID1A / RFU, ZNF146 / Fold change vs veh, ZNF146 / RFU, ZNF330 / Fold change vs veh, ZNF330 / RFU, GPN3 / Fold change vs veh, GPN3 / RFU, C9orf123 / Fold change vs veh, C9orf123 / RFU, N4BP2L2 / Fold change vs veh, N4BP2L2 / RFU, ARFIP1 / Fold change vs veh, ARFIP1 / RFU, FAM179B / Fold change vs veh, FAM179B / RFU, BCL10 / Fold change vs veh, BCL10 / RFU, UHRF1BP1L / Fold change vs veh, UHRF1BP1L / RFU, BET1 / Fold change vs veh, BET1 / RFU, CNOT2 / Fold change vs veh, CNOT2 / RFU, ZNF268 / Fold change vs veh, ZNF268 / Fold change vs veh, ZNF507 / RFU, DGCR2 / Fold change vs veh, DGCR2 / RFU, WDSUB1 / Fold change vs veh, WDSUB1 / Fold change vs veh, HSP90B1 /// MIR3652 / RFU, ADSS / Fold change vs veh, ADSS / RFU, GK / Fold change vs veh, GK / RFU, ZNF148 / Fold change vs veh, ZNF148 / RFU, TAF9 / Fold change vs veh, TAF9 / RFU, SLC1A5 / Fold change vs veh, SLC1A5 / RFU, SLMO2 / Fold change vs veh, SLMO2 / RFU, ABCC4 / Fold change vs veh, ABCC4 / RFU, LOC101060439 /// RAP1B / Fold change vs veh, LOC101060439 /// RAP1B / RFU, RFX7 / Fold change vs veh, RFX7 / RFU, GTPBP10 / Fold change vs veh, GTPBP10 / RFU, CNEP1R1 / Fold change vs veh, CNEP1R1 / RFU, BIVM-ERCC5 /// ERCC5 / Fold change vs veh, BIVM-ERCC5 /// ERCC5 / RFU, ILF3 / Fold change vs veh, ILF3 / RFU 11762660_at / Fold change /veh 11762660_at / RFU VCAN (11757783_s_at) / Fold change /veh VCAN (11757783_s_at) / RFU DDX43 (11728927_at) / Fold change /veh DDX43 (11728927_at) / RFU KRT8 (11758188_x_at) / Fold change /veh KRT8 (11758188_x_at) / RFU NKD1 (11759106_at) / Fold change /veh NKD1 (11759106_at) / RFU SRD5A1 (11742802_a_at) / Fold change /veh SRD5A1 (11742802_a_at) / RFU TPSAB1 /// TPSB2 (11721975_s_at) / Fold change /veh TPSAB1 /// TPSB2 (11721975_s_at) / RFU GSTM3 (11746129_a_at) / Fold change /veh GSTM3 (11746129_a_at) / RFU IL23R (11737362_x_at) / Fold change /veh IL23R (11737362_x_at) / RFU TMEM51 (11727254_a_at) / Fold change /veh TMEM51 (11727254_a_at) / RFU PIWIL2 (11732686_x_at) / Fold change /veh PIWIL2 (11732686_x_at) / RFU ORM1 (11744905_x_at) / Fold change /veh ORM1 (11744905_x_at) / RFU CCDC152 (11743942_at) / Fold change /veh CCDC152 (11743942_at) / RFU ECM1 (11717891_a_at) / Fold change /veh ECM1 (11717891_a_at) / RFU IL23R (11748794_a_at) / Fold change /veh IL23R (11748794_a_at) / RFU TNFAIP8L3 (11732012_x_at) / Fold change /veh TNFAIP8L3 (11732012_x_at) / RFU MBOAT4 (11741988_at) / Fold change /veh MBOAT4 (11741988_at) / RFU 11764193_at / Fold change /veh 11764193_at / RFU TMEM53 (11763286_at) / Fold change /veh TMEM53 (11763286_at) / RFU MAGEB2 (11727129_at) / Fold change /veh MAGEB2 (11727129_at) / RFU TMEM200A (11744735_a_at) / Fold change /veh TMEM200A (11744735_a_at) / RFU CCDC152 (11751479_a_at) / Fold change /veh CCDC152 (11751479_a_at) / RFU FAM211A (11726209_a_at) / Fold change /veh FAM211A (11726209_a_at) / RFU RGS16 (11746705_a_at) / Fold change /veh RGS16 (11746705_a_at) / RFU VCAN (11755009_s_at) / Fold change /veh VCAN (11755009_s_at) / RFU RHOB (11743442_s_at) / Fold change /veh RHOB (11743442_s_at) / RFU RGS16 (11720943_a_at) / Fold change /veh RGS16 (11720943_a_at) / RFU RGS16 (11720944_at) / Fold change /veh RGS16 (11720944_at) / RFU, VPS4B / Fold change vs veh, VPS4B / RFU, CREB1 / Fold change vs veh, CREB1 / RFU, DNAJC13 / Fold change vs veh, DNAJC13 / RFU, GNAQ / Fold change vs veh, GNAQ / RFU, CDK5R1 / Fold change vs veh, CDK5R1 / RFU, ZRANB3 / Fold change vs veh, ZRANB3 / RFU, CUL4A / Fold change vs veh, CUL4A / RFU, CCNY / Fold change vs veh, CCNY / RFU, UFL1 / Fold change vs veh, UFL1 / RFU, COG3 / Fold change vs veh, COG3 / RFU, DIAPH2 / Fold change vs veh, DIAPH2 / RFU, SKA2 / Fold change vs veh, SKA2 / RFU, AFF3 / Fold change vs veh, AFF3 / RFU, LMF1 / Fold change vs veh, LMF1 / RFU, IPO11 / Fold change vs veh, IPO11 / RFU, DFFB / Fold change vs veh, DFFB / RFU, FOXP1 / Fold change vs veh, FOXP1 / RFU, CARD8 / Fold change vs veh, CARD8 / RFU, STRN3 / Fold change vs veh, STRN3 / RFU, ADK / Fold change vs veh, ADK / RFU, RASSF2 / Fold change vs veh, RASSF2 / RFU, WIPF1 / Fold change vs veh, WIPF1 / RFU, LARP1B / Fold change vs veh, LARP1B / RFU, RASA1 / Fold change vs veh, RASA1 / RFU, RB1 / Fold change vs veh, RB1 / RFU, PPFIA1 / Fold change vs veh, PPFIA1 / RFU, MAT2A / Fold change vs veh, MAT2A / RFU, CCT5 / Fold change vs veh, CCT5 / RFU, WDR92 / Fold change vs veh, WDR92 / RFU, CUX1 / Fold change vs veh, CUX1 / RFU, TTC7A / Fold change vs veh, TTC7A / RFU, TMEM135 / Fold change vs veh, TMEM135 / RFU, DEPTOR / Fold change vs veh, DEPTOR / RFU, CPM / Fold change vs veh, CPM / RFU, DNAJB6 / Fold change vs veh, DNAJB6 / RFU, CACNA2D3 / Fold change vs veh, CACNA2D3 / RFU, DTX4 / Fold change vs veh, DTX4 / RFU, TFCP2 / Fold change vs veh, TFCP2 / RFU, GMCL1 /// GMCL1P1 / Fold change vs veh, GMCL1 /// GMCL1P1 / RFU, AEBP2 / Fold change vs veh, AEBP2 / RFU, SNHG1 /// SNORD22 /// SNORD25 /// SNORD26 /// SNORD27 /// SNORD28 /// SNORD29 /// SNORD31 / Fold change vs veh, SNHG1 /// SNORD22 /// SNORD25 /// SNORD26 /// SNORD27 /// SNORD28 /// SNORD29 /// SNORD31 / Fold change (Aza/veh), C12orf56 (ProbeSet 11735607_a_at) / Fold change (ACY-1035/veh), C12orf56 (ProbeSet 11735607_a_at) / Fold change (Aza/veh), FGFR1OP (ProbeSet 11751329_s_at) / Fold change (ACY-1035/veh), FGFR1OP (ProbeSet 11751329_s_at) / Fold change (Aza/veh), VPS36 (ProbeSet 11739960_a_at) / Fold change (ACY-1035/veh), VPS36 (ProbeSet 11739960_a_at) / RFU SYPL1 (11715823_x_at) / Fold change /veh SYPL1 (11715823_x_at) / RFU IGFBP7 (11715501_s_at) / Fold change /veh IGFBP7 (11715501_s_at) / RFU REEP3 (11722064_at) / Fold change /veh REEP3 (11722064_at) / RFU IGLL1 (11728026_x_at) / Fold change /veh IGLL1 (11728026_x_at): dose or concentration left out as unconfirmed
Conditions: ProbeSet 11720154_at; LIST B

Question: How did the “Fold change vs veh, NRIP1” value turn out when `Nc1ncn([C@@H]2O[C@H](CO)[C@@H](O)[C@H]2O)c(=O)n1` [azacitidine] was run?
Answer: 0.86
